Test results published in patent US8877707B2, “Inhibitors of HCV NS5A” (Presidio Pharmaceuticals, Inc., priority 2010, dated 2014).
Read-outs that look alike come from different tables or passages of the source.

Tested on: HCV genotype 1b replicon in Huh 7 cells
Assay: HCV replicon assay (1b_Huh-Luc/Neo-ET cell line, luciferase readout)
Assay type: cell-based
Details: Hepatitis C virus, read-out: Inhibition of HCV genotype 1b
How it was run: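 Replicon level was read as luciferase signal after 72 h compound exposure, triplicate wells, starting the day after cells were plated. Cell line: 1b_Huh-Luc/Neo-ET. Values normalised to control as percent, and EC50 fitted with a variable-slope sigmoid; determinations repeated.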

[1] = Table 1, genotype 1b replicon, Huh 7 cells, 72 h, luciferase
[2] = Table 2, genotype 1b replicon, Huh 7 cells, 72 h, luciferase

| Structure (SMILES) | EC50 [1] [nM] | other results |
| --- | --- | --- |
| COC(=O)N[C@H](C(=O)N1CCN(C(=O)OC)C[C@H]1c1ncc(-c2ccc(-c3ccc4cc(-c5cnc([C@@H]6CCCN6C(=O)[C@H](NC(=O)OC)c6ccccc6)[nH]5)ccc4n3)cc2)[nH]1)C(C)C [compound 471] | – | EC50 (Huh-7, HCV 1b replicon): < 1 nM |
| COC(=O)N[C@H](C(=O)N1CCC[C@H]1CNC(=O)c1cnc2cc(-c3ccc4c(ccc5nc([C@@H]6CCCN6C(=O)[C@@H](NC(=O)OC)C(C)C)[nH]c54)c3)ccc2c1)C(C)C [compound 550] | – | EC50 (Huh-7, HCV 1b replicon): 1 to 9.9 nM |
| COC(=O)N[C@H](C(=O)N1CCOC[C@H]1c1nc2ccc(-c3ccc4cc(-c5cnc([C@@H]6CCCN6C(=O)[C@@H](NC(=O)OC)C6CCOCC6)[nH]5)ccc4c3)cc2[nH]1)C(C)C [compound 223] | < 1 | – |
| COC(=O)NC(C(=O)N1CCC[C@H]1c1ncc(-c2ccc3cc(-c4ccc(-c5cnc([C@@H]6CCCN6C(=O)[C@H](NC(=O)OC)c6ccccc6)[nH]5)cc4)ccc3c2)[nH]1)[C@@H](C)O (some centres unmarked) [compound 320] | – | EC50 [2]: < 1 nM |
| COC(=O)N[C@H](C(=O)N1CCC[C@H]1c1ncc(-c2ccc(-c3nc4ccc(-c5cnc([C@@H]6CCCN6C(=O)[C@@H](NC(=O)OC)C(C)C)[nH]5)cc4s3)cc2)[nH]1)C(C)C [compound 229] | < 1 | – |
| COC(=O)N[C@H](C(=O)N1CCC[C@H]1c1nc(-c2ccc3nc(C45CCC(c6cnc([C@@H]7CCCN7C(=O)[C@@H](NC(=O)OC)C7CC7)[nH]6)(CC4)CC5)ccc3c2)c[nH]1)C1CC1 [compound 265] | < 1 | – |
| COC(=O)N[C@H](C(=O)N1CCC[C@H]1c1ncc(-c2ccc(-c3ccc4cc(-c5cnc([C@@H]6CCCN6C(=O)[C@@H](NC(=O)OC)[C@@H](C)OC)[nH]5)ccc4c3)cc2)[nH]1)C1CCCC1 [compound 504] | – | EC50 (Huh-7, HCV 1b replicon): < 1 nM |
| COC(=O)N[C@H](C(=O)N1CCC[C@H]1c1ncc(-c2ccc(-c3ccc4cc(-c5cnc([C@@H]6CCCN6C(=O)[C@@H](NC(=O)OC)C6CCOCC6)[nH]5)ccc4n3)cc2F)[nH]1)C(C)C [compound 123] | < 1 | – |
| COC(=O)N[C@@H](C(=O)N1CCCC[C@H]1c1ncc(-c2ccc(-c3ccc4cc(-c5cnc([C@@H]6CCCN6C(=O)[C@H](NC(=O)OC)c6ccccc6)[nH]5)ccc4n3)cc2)[nH]1)c1ccccc1 [compound 457] | – | EC50 (Huh-7, HCV 1b replicon): < 1 nM |
| COC(=O)N[C@H](C(=O)N1CCC[C@H]1c1ncc(-c2ccc(-c3ccc4cc(-c5cnc([C@@H]6CCCN6C(=O)[C@H](NC(=O)OC)c6ccccc6)[nH]5)ccc4n3)c(F)c2)[nH]1)C1CCOCC1 [compound 129] | < 1 | – |
| COC(=O)N[C@H](C(=O)N1CCC[C@H]1c1ncc(-c2ccc3cc(-c4ccc(-c5cnc([C@@H]6CCCN6C(=O)[C@@H](NC(=O)OC)C(C)C)[nH]5)nn4)ccc3c2)[nH]1)C(C)C [compound 312] | – | EC50 [2]: < 1 nM |
| COC(=O)N[C@H](C(=O)N1CCOC[C@H]1c1ncc(-c2ccc3cc(-c4ccc(-c5cnc([C@@H]6CCCN6C(=O)[C@H](NC(=O)OC)c6ccccc6)[nH]5)cc4)ccc3c2)[nH]1)C(C)C [compound 138] | < 1 | – |
| COC(=O)N[C@H](C(=O)N1CCC[C@H]1c1ncc(-c2ccc(-c3nc4cc(-c5cnc([C@@H]6CCCN6C(=O)[C@@H](NC(=O)OC)C(C)C)[nH]5)ccc4o3)cc2)[nH]1)C(C)C [compound 236] | < 1 | – |
| COC(=O)N[C@H](C(=O)N1CCC[C@H]1c1nc2ccc(-c3cccc4c(-c5cnc([C@@H]6CCCN6C(=O)[C@H](NC(=O)OC)c6ccccc6)[nH]5)cccc34)cc2[nH]1)C(C)C [compound 208] | < 1 | – |
| COC(=O)N[C@H](C(=O)N1CCC[C@H]1c1ncc(-c2ccc3cc(-c4ccc(-c5cnc([C@@H]6CCCN6C(=O)[C@H](NC(=O)OC)c6ccccc6)[nH]5)cn4)ccc3c2)[nH]1)[C@@H](C)OC [compound 480] | – | EC50 (Huh-7, HCV 1b replicon): < 1 nM |
| COC(=O)N[C@H](C(=O)N1CCC[C@H]1c1ncc(-c2ccc3cc(-c4ccc5nc([C@@H]6CCCN6C(=O)[C@@H](NC(=O)OC)C6CCCC6)[nH]c5c4)nnc3c2)[nH]1)C1CCCC1 [compound 393] | – | EC50 [2]: < 1 nM |
| COC(=O)N[C@H](C(=O)N1CCC[C@H]1c1ncc(-c2ccc3nc(-c4ccc5c(c4)CCc4nc([C@@H]6CCCN6C(=O)[C@@H](NC(=O)OC)C(C)C)[nH]c4-5)ccc3c2)[nH]1)C(C)C [292-1] | < 1 | – |
| COC(=O)N[C@H](C(=O)N1CCC[C@H]1c1nc(-c2ccc3nc(C45CCC(c6cnc([C@@H]7CCCN7C(=O)[C@@H](NC(=O)OC)C(C)C)[nH]6)(CC4)CC5)ccc3c2)c[nH]1)C(C)C [compound 262] | < 1 | – |
| CCC(CC)[C@H](NC(=O)OC)C(=O)N1CCC[C@H]1c1ncc(-c2ccc3nc(-c4ccc5nc([C@@H]6CCCN6C(=O)[C@@H](NC(=O)OC)C(CC)CC)[nH]c5c4)ccc3c2)[nH]1 [compound 382] | – | EC50 [2]: < 1 nM |
| COC(=O)N[C@H](C(=O)N1CCC[C@H]1c1nc2ccc(-c3ccc4cc(-c5cnc([C@@H]6CCCN6C(=O)[C@H](NC(=O)OC)c6ccccc6)[nH]5)ccc4n3)cc2[nH]1)C(C)C [compound 196] | < 1 | – |
| COC(=O)N[C@H](C(=O)N1CCC[C@H]1c1ncc(-c2ccc(-c3ccc4cc(-c5c[nH]c([C@@H]6CCCN6C(=O)[C@H](NC(=O)OC)c6ccccc6)n5)cnc4c3)cn2)[nH]1)C(C)C [compound 94] | < 1 | – |

| Structure (SMILES) | EC50 [1] [nM] | other results |
| --- | --- | --- |
| COC(=O)N[C@H](C(=O)N1CCC[C@H]1c1ncc(-c2ccc3cc(-c4ccc(-c5cnc([C@@H]6CCCN6C(=O)[C@H](NC(=O)OC)c6ccccc6)[nH]5)c(F)c4)ncc3c2)[nH]1)C(C)C [compound 155] | < 1 | – |
| COC(=O)N[C@H](C(=O)N1CCC[C@H]1c1nc(-c2ccc3cc(-c4ccc(-c5cnc([C@@H]6CCCN6C(=O)[C@@H](c6ccccc6)N(C)C)[nH]5)cc4)ccc3c2)c[nH]1)C(C)C [compound 5] | < 1 | – |
| COC(=O)N[C@H](C(=O)N1C[C@H](O)C[C@H]1c1ncc(-c2ccc(-c3ccc4cc(-c5cnc([C@@H]6CCCN6C(=O)[C@H](NC(=O)OC6CCOCC6)c6ccccc6)[nH]5)ccc4n3)cc2)[nH]1)C(C)C [compound 149] | < 1 | – |
| COC(=O)N[C@H](C(=O)N1CCC[C@H]1c1nc2ccc(-c3ccc4cc(-c5ccc6nc([C@@H]7CCCN7C(=O)[C@@H](NC(=O)OC)C7CCOCC7)[nH]c6n5)ccc4c3)nc2[nH]1)C1CCOCC1 [compound 284] | 1 to 9.9 | – |
| COC(=O)N[C@H](C(=O)N1CCC[C@H]1c1nc2ccc(-c3ccc4cc(-c5ccc6nc([C@@H]7CCCN7C(=O)[C@@H](NC(=O)OC)[C@@H](C)OC)[nH]c6c5)nnc4c3)cc2[nH]1)[C@@H](C)OC [compound 538] | – | EC50 (Huh-7, HCV 1b replicon): < 1 nM |
| CCNC(=O)N[C@@H](C(=O)N1CCC[C@H]1c1ncc(-c2ccc3nc(-c4ccc(-c5cnc([C@@H]6CCCN6C(=O)[C@@H](NC(=O)OC)C(C)C)[nH]5)cc4)sc3c2)[nH]1)c1ccccc1 [compound 244] | < 1 | – |
| COC(=O)N[C@H](C(=O)N1CCC[C@H]1c1ncc(-c2ccc3cc(-c4ccc(-c5cnc([C@@H]6CCCN6C(=O)[C@H](NC(=O)OC)c6ccccc6)[nH]5)cn4)ccc3c2)[nH]1)C1CCOCC1 [compound 337] | – | EC50 [2]: < 1 nM |
| COC(=O)N[C@H](C(=O)N1CCN(C(=O)OC)C[C@H]1c1ncc(-c2ccc(-c3ccc4cc(-c5cnc([C@@H]6CCCN6C(=O)[C@H](NC(=O)OC6CCOCC6)c6ccccc6)[nH]5)ccc4n3)cc2)[nH]1)C(C)C [compound 472] | – | EC50 (Huh-7, HCV 1b replicon): < 1 nM |
| COC(=O)N[C@H](C(=O)N1CCC[C@H]1c1nc2ccc(-c3ccc4cc(-c5ccc6nc([C@@H]7CCCN7C(=O)[C@@H](NC(=O)OC)C(C)C)[nH]c6c5)ncc4c3)cc2[nH]1)C(C)C [compound 281] | < 1 | – |
| COC(=O)N[C@H](C(=O)N1CCC[C@H]1c1nc2ccc(-c3cccc4c(-c5cnc([C@@H]6CCCN6C(=O)[C@@H](NC(=O)OC)C6CCOCC6)[nH]5)cccc34)cc2[nH]1)C(C)C [compound 215] | < 1 | – |
| COC(=O)N[C@H](C(=O)N1CCC[C@H]1c1ncc(-c2ccc3cc(-c4ccc5nc([C@@H]6CCCN6C(=O)[C@@H](NC(=O)OC)C6CCOCC6)[nH]c5c4)ccc3c2)[nH]1)C1CCOCC1 [compound 203] | < 1 | – |
| COC(=O)N[C@@H](C(=O)N1CCC[C@H]1CNC(=O)c1cnc2cc(-c3ccc4c(ccc5nc([C@@H]6CCCN6C(=O)[C@H](NC(=O)OC)c6ccccc6)[nH]c54)c3)ccc2c1)c1ccccc1 [compound 551] | – | EC50 (Huh-7, HCV 1b replicon): < 1 nM |
| CC(C)(C)OC(=O)N1CCCC1c1ncc(C23CCC(c4ccc5cc(-c6c[nH]c([C@@H]7CCCN7C(=O)OC(C)(C)C)n6)ccc5n4)(CC2)CC3)[nH]1 (some centres unmarked) [compound 268] | 10 to 999 | – |
| COC(=O)N[C@H](C(=O)N1CCC[C@H]1c1ncc(-c2ccc3cc(-c4ccc5nc([C@@H]6CCCN6C(=O)[C@@H](c6ccccc6)N6CCCC6)[nH]c5c4)ccc3c2)[nH]1)C(C)C [compound 180] | < 1 | – |
| COC(=O)N[C@H](C(=O)N1CCC[C@H]1c1ncc(-c2ccc3cc(-c4cc5[nH]c([C@@H]6CCCN6C(=O)[C@@H](NC(=O)OC)C(C)C)nc5cc4F)ccc3c2)[nH]1)C(C)C [compound 700] | – | EC50 (Huh-7, HCV 1b replicon): < 1 nM |
| COC(=O)N[C@H](C(=O)N1CCC[C@H]1c1ncc(-c2ccc3cc(-c4ccc(-c5cnc([C@@H]6CCCN6C(=O)[C@H](NC(=O)OC)c6ccccc6)[nH]5)nn4)ccc3c2)[nH]1)C1CCOCC1 [compound 315] | – | EC50 [2]: < 1 nM |
| COC(=O)N[C@H](C(=O)N1CCC[C@H]1c1ncc(-c2ccc(-c3ccc4cc(-c5c[nH]c([C@@H]6CCCN6C(=O)[C@H](NC(=O)NC6CC6)c6ccccc6)n5)ccc4n3)cc2)[nH]1)C(C)C [compound 38] | < 1 | – |
| COC(=O)N[C@H](C(=O)N1CCC[C@H]1c1nc2ccc(-c3ccc4cc(-c5ccc6nc([C@@H]7CCCN7C(=O)[C@@H](NC(=O)OC)C(C)C)[nH]c6c5)ccc4c3)cc2[nH]1)C(C)C [compound 276] | < 1 | – |
| COC(=O)N[C@@H](C)C(=O)N1CCC[C@H]1c1ncc(-c2ccc3cc(-c4ccc5nc([C@@H]6COCCN6C(=O)[C@H](C)NC(=O)OC)[nH]c5c4)ccc3c2)[nH]1 [compound 359] | – | EC50 [2]: < 1 nM |
| COC(=O)N[C@H](C(=O)N1CCC[C@H]1c1ncc(-c2ccc(-c3cc4ccc(-c5cnc([C@@H]6CCCN6C(=O)[C@@H](NC(=O)OC)C6CCOCC6)[nH]5)cc4cn3)cc2F)[nH]1)C(C)C [compound 128] | < 1 | – |
